The values that follow come from ChEMBL document CHEMBL1255445, “Evaluation of nucleoside hydrolase inhibitors for treatment of African trypanosomiasis” (Antimicrob Agents Chemother, 2010).

Each structure is given as a SMILES string. The source made the active and inactive calls. The rule behind the calls is not given here.

Experiment [1] deals with Trypanosoma brucei brucei. In words: Antitrypanosomal activity against suramin sensitive Trypanosoma brucei brucei Lister 427 assessed as reduction in parasite growth after 3 days by fluorometrically. Type of experiment: functional, organism-based. Particulars: Lister 427, 72 h.
The subject of a further experiment is Plasmodium falciparum. In words: Antiparasitic activity against chloroquine-sensitive Plasmodium falciparum Ghana assessed as reduction in parasite growth after 3 days by fluorimetry. The experiment is classed as functional, organism-based.
The subject of the next experiment is Trypanosoma cruzi. In words: Antitrypanosomal activity against Trypanosoma cruzi Tulahuen CL2 s-galactosidase strain assessed as reduction in parasite growth after 3 days by fluorometrically. Type of experiment: functional, organism-based.
The test system of a further experiment is Leishmania infantum. In words: Antileishmanial activity against Leishmania infantum MHOM/MA/67/ITMAP263 intracellular amastigotes assessed as reduction in parasite growth after 3 days by fluorometrically. Type of experiment: functional, organism-based.
Experiment [2] can be described thus: Inhibition of Trypanosoma vivax Inosine-adenosine-guanosine-nucleoside hydrolase.

As to `OC[C@@H]1[C@@H](O)[C@@H](O)CN1Cc1cnc2ccccc2c1`, the 50% inhibitory concentration (IC50) in experiment [1] was > 64 µM. Further, the outcome with Plasmodium falciparum, in the experiment on Trypanosoma cruzi and in the experiment with Leishmania infantum was inactive. Further, in experiment [2], the Ki is 20 µM.

For the compound `N=C(N)c1ccc(CN2C[C@H](O)[C@H](O)[C@H]2CO)cc1`, the IC50 in experiment [1] was determined as 48 µM. Also, the outcome in the experiment with Plasmodium falciparum, with Trypanosoma cruzi and with Leishmania infantum was inactive. The compound further came in with a Ki in experiment [2] of 6.7 µM.

Take `CN1C(CCNC(=N)N)[C@H](O)[C@H](O)[C@H]1CO` (stereo partly drawn): the outcome with Plasmodium falciparum, in the experiment on Trypanosoma cruzi and in the experiment with Leishmania infantum was inactive. In experiment [2], the inhibition constant (Ki) stood at 18 µM.

Regarding `OC[C@@H]1[C@@H](O)[C@@H](O)CN1Cc1ccc2cccnc2c1`, in experiment [1], the IC50 is > 64 µM. Besides, the outcome in the experiment on Plasmodium falciparum, in the experiment with Trypanosoma cruzi and with Leishmania infantum was inactive. Also, in experiment [2], the inhibition constant (Ki) was 0.72 µM.

Turning to `Nc1ccc2cccc(CN3C[C@H](O)[C@H](O)[C@H]3CO)c2n1`, the IC50 in experiment [1] was > 64 µM. Besides, the outcome in the experiment with Plasmodium falciparum, with Trypanosoma cruzi and in the experiment with Leishmania infantum was inactive. The compound further had an inhibition constant Ki in experiment [2] of 8.4 µM.

Consider `OC[C@@H]1[C@@H](O)[C@@H](O)CN1Cc1ccc2ccccc2c1`, for which the IC50 in experiment [1] is > 64 µM. Also, the outcome with Plasmodium falciparum, in the experiment on Trypanosoma cruzi and with Leishmania infantum was inactive. Besides, the Ki in experiment [2] was found to be 2 µM.

In the case of `OC[C@@H]1[C@@H](O)[C@@H](O)CN1Cc1nccc2ccccc12`, the result with Plasmodium falciparum, in the experiment on Trypanosoma cruzi and in the experiment on Leishmania infantum was inactive. The same compound gave a Ki in experiment [2] of 0.75 µM.

Consider `O=[N+]([O-])c1cccc(CN2C[C@H](O)[C@H](O)[C@H]2CO)c1`, for which the IC50 in experiment [1] is > 64 µM. Besides, the outcome with Plasmodium falciparum, in the experiment with Trypanosoma cruzi and in the experiment on Leishmania infantum was inactive. In experiment [2], this compound had a Ki of 23 µM.

Take `OC[C@@H]1[C@@H](O)[C@@H](O)CN1Cc1ccc(-n2cccn2)cc1`: the half-inhibitory concentration (IC50) in experiment [1] is > 64 µM. In addition, the result in the experiment with Plasmodium falciparum, in the experiment on Trypanosoma cruzi and in the experiment with Leishmania infantum was inactive. In experiment [2], this compound displayed an inhibition constant Ki of 1.2 µM.

As for `N#Cc1ccc(CN2C[C@H](O)[C@H](O)[C@H]2CO)cc1`, the outcome with Plasmodium falciparum, in the experiment on Trypanosoma cruzi and in the experiment with Leishmania infantum was inactive. This compound came in with an inhibition constant (Ki) in experiment [2] of 26 µM.

For `N=C(N)NCCN1C[C@H](O)[C@H](O)[C@H]1CO`, in experiment [1], the IC50 is > 64 µM. The outcome in the experiment with Plasmodium falciparum, in the experiment on Trypanosoma cruzi and with Leishmania infantum was inactive. In addition, the affinity in experiment [2] corresponds to a Ki of 286 µM.

For the compound `OC[C@@H]1[C@@H](O)[C@@H](O)CN1Cc1ccccc1`, the outcome in the experiment with Plasmodium falciparum, in the experiment with Trypanosoma cruzi and in the experiment on Leishmania infantum was inactive. In experiment [2], the affinity, expressed as Ki, was 58 µM.

Take `OC[C@@H]1[C@@H](O)[C@@H](O)CN1Cc1ccnc2ccccc12`: the IC50 in experiment [1] is > 64 µM. Also, the outcome in the experiment with Plasmodium falciparum, in the experiment with Trypanosoma cruzi and with Leishmania infantum was inactive. The compound also had an inhibitory constant (Ki) in experiment [2] of 29 µM.

With `OC[C@@H]1[C@@H](O)[C@@H](O)CN1Cc1ccc(-n2cncn2)cc1`, in experiment [1], the IC50 was > 64 µM. Also, the result with Plasmodium falciparum, in the experiment with Trypanosoma cruzi and in the experiment on Leishmania infantum was inactive. Besides, the affinity in experiment [2], expressed as Ki, was 1.2 µM.

For the compound `COc1ccc(CN2C[C@H](O)[C@H](O)[C@H]2CO)cn1`, in experiment [1], the half-inhibitory concentration (IC50) was > 64 µM. The outcome with Plasmodium falciparum, with Trypanosoma cruzi and in the experiment with Leishmania infantum was inactive. The compound further had a Ki in experiment [2] of 32 µM.

Consider `OC[C@@H]1[C@@H](O)[C@@H](O)CN1Cc1cccc(-n2cccc2)c1`, for which, in experiment [1], the IC50 was 29 µM. Further, the result with Plasmodium falciparum, in the experiment with Trypanosoma cruzi and in the experiment on Leishmania infantum was inactive. Moreover, in experiment [2], the Ki was found to be 3.4 µM.

With `Cc1cc(N)c2cccc(CN3C[C@H](O)[C@H](O)[C@H]3CO)c2n1`, in experiment [1], the half-maximal inhibitory concentration (IC50) was > 64 µM. Further, the result in the experiment with Plasmodium falciparum, in the experiment with Trypanosoma cruzi and in the experiment with Leishmania infantum was inactive. Further, in experiment [2], the Ki was found to be 71 µM.

On to `O=[N+]([O-])c1ccc(CN2C[C@H](O)[C@H](O)[C@H]2CO)cc1`, for which the 50% inhibitory concentration (IC50) in experiment [1] is > 64 µM. Besides, the result with Plasmodium falciparum, in the experiment with Trypanosoma cruzi and with Leishmania infantum was inactive. The compound also gave an inhibition constant Ki in experiment [2] of 7.5 µM.

For `OC[C@@H]1[C@@H](O)[C@@H](O)CN1Cc1ccc2cccc(O)c2n1`, the IC50 in experiment [1] was 49 µM. Also, the outcome with Plasmodium falciparum, in the experiment with Trypanosoma cruzi and in the experiment on Leishmania infantum was inactive. In experiment [2], this compound came in with a Ki of 1 µM.

Regarding `OC[C@@H]1[C@@H](O)[C@@H](O)CN1Cc1ccc(-n2cccc2)cc1`, the IC50 in experiment [1] was found to be 38 µM. Also, the outcome in the experiment with Plasmodium falciparum, in the experiment with Trypanosoma cruzi and with Leishmania infantum was inactive. In addition, the Ki in experiment [2] turned out to be 1 µM.

Consider `N=C(N)NCCCN1C[C@H](O)[C@H](O)[C@H]1CO`, for which the IC50 in experiment [1] is > 64 µM. Moreover, the result in the experiment on Plasmodium falciparum, with Trypanosoma cruzi and in the experiment with Leishmania infantum was inactive. This compound registered a Ki in experiment [2] of 39.9 µM.

In the case of `COc1ccc2cccc(CN3C[C@H](O)[C@H](O)[C@H]3CO)c2n1`, in experiment [1], the IC50 was > 64 µM. The outcome in the experiment on Plasmodium falciparum, in the experiment with Trypanosoma cruzi and in the experiment on Leishmania infantum was inactive. This compound gave a Ki in experiment [2] of 1.3 µM.

For `OC[C@@H]1[C@@H](O)[C@@H](O)CN1Cc1ccc2ccccc2n1`, the result with Plasmodium falciparum, in the experiment on Trypanosoma cruzi and in the experiment on Leishmania infantum was inactive. The affinity in experiment [2] corresponds to a Ki of 0.18 µM.

Consider `Cc1nn(-c2ccccc2)nc1CN1C[C@H](O)[C@H](O)[C@H]1CO`, for which the half-inhibitory concentration (IC50) in experiment [1] was > 64 µM. For the same compound, the result in the experiment on Plasmodium falciparum, in the experiment on Trypanosoma cruzi and with Leishmania infantum was inactive. The inhibitory constant (Ki) in experiment [2] amounted to 0.063 µM.

Turning to `OC[C@@H]1[C@@H](O)[C@@H](O)CN1Cc1ccncc1`, the outcome in the experiment with Plasmodium falciparum, with Trypanosoma cruzi and in the experiment with Leishmania infantum was inactive. The Ki in experiment [2] worked out at 20 µM.

For `OC[C@@H]1[C@@H](O)[C@@H](O)CN1CCc1c[nH]c2ccccc12`, in experiment [1], the half-inhibitory concentration (IC50) turned out to be 31 µM. Further, the result in the experiment on Plasmodium falciparum, in the experiment with Trypanosoma cruzi and in the experiment with Leishmania infantum was inactive. The Ki in experiment [2] was determined as 9.5 µM.

As for `Cc1cc(Cl)c2cccc(CN3C[C@H](O)[C@H](O)[C@H]3CO)c2n1`, the IC50 in experiment [1] is 22 µM. Besides, the result in the experiment with Plasmodium falciparum, in the experiment on Trypanosoma cruzi and in the experiment with Leishmania infantum was inactive. In experiment [2], this compound returned a Ki of 0.37 µM.

On to `N#Cc1cccc(CN2C[C@H](O)[C@H](O)[C@H]2CO)c1`, for which, in experiment [1], the IC50 was > 64 µM. In addition, the outcome in the experiment on Plasmodium falciparum, with Trypanosoma cruzi and with Leishmania infantum was inactive. In addition, in experiment [2], the inhibition constant (Ki) amounted to 3.8 µM.

Take `Cc1nc(-c2ccccc2)ncc1CN1C[C@H](O)[C@H](O)[C@H]1CO`: in experiment [1], the IC50 was > 64 µM. Besides, the outcome in the experiment on Plasmodium falciparum, in the experiment with Trypanosoma cruzi and in the experiment with Leishmania infantum was inactive. Affinity in experiment [2] was put at a Ki of 43 µM.

With `Cn1c(CN2C[C@H](O)[C@H](O)[C@H]2CO)nc2ccccc21`, the result in the experiment with Plasmodium falciparum, in the experiment on Trypanosoma cruzi and in the experiment on Leishmania infantum was inactive. In experiment [2], this compound came in with an inhibitory constant (Ki) of 2.1 µM.

`N=C(N)Nc1ccc(CN2C[C@H](O)[C@H](O)[C@H]2CO)cc1`: in experiment [1], the 50% inhibitory concentration (IC50) is > 64 µM. Further, the outcome in the experiment with Plasmodium falciparum, in the experiment on Trypanosoma cruzi and in the experiment with Leishmania infantum was inactive. In addition, in experiment [2], the inhibition constant Ki amounted to 7 µM.

Turning to `OC[C@@H]1[C@@H](O)[C@@H](O)CN1Cc1cccc2ccc(Cl)nc12`, in experiment [1], the IC50 was 29 µM. Moreover, the result with Plasmodium falciparum, in the experiment on Trypanosoma cruzi and in the experiment on Leishmania infantum was inactive. Besides, in experiment [2], the inhibition constant Ki was 0.31 µM.

For the compound `O=c1ccc2cccc(CN3C[C@H](O)[C@H](O)[C@H]3CO)c2[nH]1`, the IC50 in experiment [1] was > 64 µM. In addition, the result with Plasmodium falciparum, in the experiment with Trypanosoma cruzi and in the experiment with Leishmania infantum was inactive. The affinity in experiment [2], expressed as Ki, was 187 µM.

On to `OC[C@@H]1[C@@H](O)[C@@H](O)CN1Cc1ccc(I)cc1`, for which, in experiment [1], the IC50 is > 64 µM. For the same compound, the result with Plasmodium falciparum, in the experiment with Trypanosoma cruzi and in the experiment with Leishmania infantum was inactive. For the same compound, in experiment [2], the inhibition constant (Ki) was 4.3 µM.

With `Nc1ncccc1CN1C[C@H](O)[C@H](O)[C@H]1CO`, the IC50 in experiment [1] is > 64 µM. Moreover, the result in the experiment with Plasmodium falciparum, in the experiment with Trypanosoma cruzi and in the experiment with Leishmania infantum was inactive. The compound further returned a Ki in experiment [2] of 121 µM.

With `Cn1nnc2cc(CN3C[C@H](O)[C@H](O)[C@H]3CO)ccc21`, the IC50 in experiment [1] was > 64 µM. Besides, the outcome in the experiment on Plasmodium falciparum, in the experiment on Trypanosoma cruzi and in the experiment with Leishmania infantum was inactive. Further, in experiment [2], the affinity corresponds to a Ki of 0.72 µM.

One may read the IC50 as the concentration that inhibits the measured activity by half. A word on the Ki: it is the equilibrium dissociation constant of an inhibitor or competing ligand from its target.
